System: Plasmodium berghei
Test: Luciferase/luciferin-expressing antifolate-resistant parasites were used to infect a culture of HepG2 cells that were pre-incubated with compounds. Infected hepatocytes emit light due to the luciferase reaction. Assay results are presented as the percent inhibition of light emission compared to control. […]
Format: functional
Settings: sporozoite; for IC50: read-out: LUCIFERASE INFECTION ASSAY - IC50; for IC90: read-out: LUCIFERASE INFECTION ASSAY - IC90

Row | SMILES | IC50 | IC90
1 | O=C(OCC(=O)N(CCc1ccccc1)Cc1ccccc1)c1ccccc1NCCO | > 10 µM | > 10 µM
2 | CC(C)=CC(=O)Nc1scc(-c2ccccc2)c1C(=O)OCC(=O)Nc1cc(C)on1 | > 10 µM | > 10 µM
3 | O=C(CN1C(=O)CCOc2ccccc21)N1CCN(C(=O)C2COc3ccccc3O2)CC1 (stereo unspecified) | 3.76 µM | 8.99 µM
4 | COc1ccccc1-c1noc(COC(=O)c2c[nH]nc2-c2ccccc2)n1 | > 10 µM | > 10 µM
5 | Cc1nc(-c2ccsc2)sc1C(=O)Nc1nc(-c2ccc(NS(C)(=O)=O)cc2)cs1 | 5.84 µM | 8.82 µM
6 | CCOc1cc(/C=C/C(=O)c2ccc(N(C)C)cc2)cc(Br)c1OCC(=O)N(C)C | 2.32 µM | 4.93 µM
7 | O=C(NCCC1=CCCCC1)c1ccccc1CN1C(=O)CNC1=O | > 10 µM | > 10 µM
8 | CCCCN(C(=O)c1csc(-c2ccc(C(C)C)cc2)n1)c1c(N)n(CCC)c(=O)[nH]c1=O | > 10 µM | > 10 µM
9 | O=C(NNC(=O)c1ccccc1Nc1ccccc1)c1ccccc1O | 8.81 µM | 9.6 µM
10 | Cc1oc(=S)n(CN2CCN(S(=O)(=O)c3ccc4ccccc4c3)CC2)c1C | > 10 µM | > 10 µM
11 | O=C(Cc1csc(-c2ccc(C(F)(F)F)cc2)n1)NCc1cnn(-c2ccccc2)c1 | > 10 µM | > 10 µM
12 | CCN(CC)S(=O)(=O)c1ccc(O)c(NC(=O)c2ccc(SC(F)(F)F)cc2)c1 | > 10 µM | > 10 µM
13 | CCOc1cc(/C=C/C(=O)c2ccc(F)c(Br)c2)cc(Cl)c1OCC(=O)N(C)C | > 10 µM | > 10 µM
14 | O=C(COc1ccccc1C(=O)NCc1ccccc1)NC(c1ccc(F)cc1)c1cccs1 (stereo unspecified) | 8.41 µM | > 10 µM
15 | COCCN(Cc1nc(=O)c2ccccc2[nH]1)C(=O)c1cc(C(C)(C)C)cc(C(C)(C)C)c1O | > 10 µM | > 10 µM
16 | CCc1ccc(N(C(=O)C2CCN(C(=O)C(C)(C)C)CC2)c2nc3ccccc3s2)cc1 | > 10 µM | > 10 µM
17 | CCCN(Cc1nc(=O)c2ccc(Cl)cc2[nH]1)C(=O)C1CCN(c2nc3ccccc3o2)CC1 | > 10 µM | > 10 µM
18 | CC(C)c1cccc(NC(=O)COc2ccc(S(N)(=O)=O)cc2[N+](=O)[O-])c1 | > 10 µM | > 10 µM
19 | N#Cc1ccc(NC(=O)c2cnn(Cc3ccccc3Cl)c2)cc1 | > 10 µM | > 10 µM
20 | O=C(OCc1cn(-c2ccccc2)nc1-c1ccccc1)c1ccc(N2CCOCC2)nc1 | > 10 µM | > 10 µM

Row | SMILES | IC50 | IC90
21 | CC(Sc1nncs1)C(=O)Nc1cc([N+](=O)[O-])ccc1Cl (stereo unspecified) | > 10 µM | > 10 µM
22 | Cc1ccc(-c2c(C)sc3[nH]c(CN(C)CC(=O)Nc4cccc(C)c4C)nc(=O)c23)cc1 | > 10 µM | > 10 µM
23 | Cc1ccc(S(=O)(=O)N2CCCC(C(=O)NNC(=O)CCNC(=O)/C=C/c3ccccc3)C2)cc1 (stereo unspecified) | > 10 µM | > 10 µM
24 | N#CCCn1cc(/C=C(\C#N)c2nc3ccccc3[nH]2)c(-c2ccccc2)n1 | > 10 µM | > 10 µM
25 | CCS(=O)(=O)c1ccc(O)c(NC(=O)Cc2csc(-c3ccsc3)n2)c1 | > 10 µM | > 10 µM
26 | O=C(CNc1ccccc1-c1ccccc1)Nc1cc(Cl)ccc1F | > 10 µM | > 10 µM
27 | Cc1cc(=O)n2nc(-c3ccccc3)cc2n1CC(=O)Nc1cc(Cl)ccc1N1CCCCC1 | 3.43 µM | 4.37 µM
28 | Cc1ccccc1C(C)NC(=O)c1c[nH]c(=S)n1-c1ccccc1 (stereo unspecified) | > 10 µM | > 10 µM
29 | COCCn1cnc2c1c(=O)n(CC(=O)NC1(C#N)CCCCCC1)c(=O)n2CC(C)C | > 10 µM | > 10 µM
30 | Cc1cccc2sc(N(Cc3ccccc3)C(=O)C3CCN(C(=O)C(C)(C)C)CC3)nc12 | > 10 µM | > 10 µM
31 | CC(Sc1nnc(/C=C/c2ccc(F)cc2)[nH]1)C(=O)NC(C)(C)C (stereo unspecified) | 2.09 µM | 5.34 µM
32 | Cc1ccc(-c2n[nH]c(=S)n2CCC(=O)NC(C)c2ccc(F)c(F)c2)cc1 (stereo unspecified) | > 10 µM | > 10 µM
33 | CC(C)C(Nc1ccc(S(=O)(=O)N2CCOCC2)cc1[N+](=O)[O-])c1nc2ccccc2[nH]1 (stereo unspecified) | 9.46 µM | > 10 µM
34 | CCOC(=O)c1nc(N(CCc2ccccc2)C(=O)c2cnc3c(cnn3C(C)C)c2)sc1C | > 10 µM | > 10 µM
35 | O=C(CN1c2cccc3cccc(c23)S1(=O)=O)Nc1ccc(-c2nc3ccccc3[nH]2)cc1 | > 10 µM | > 10 µM
36 | CCCn1c(N)c(N2CCCCC2)c(=O)n(Cc2nc(N)nc(Nc3ccccc3)n2)c1=O | 2.17 µM | 3.51 µM
37 | COc1ccccc1-n1nnnc1SC(C)C(=O)Nc1ccc2[nH]c(=O)[nH]c2c1 (stereo unspecified) | > 10 µM | > 10 µM
38 | COC(=O)c1cccnc1Nc1ccc(NS(=O)(=O)c2ccc(F)c(F)c2)cc1 | > 10 µM | > 10 µM
39 | COc1cc(NC(=O)COc2ccc3[nH]c4ccccc4c(=O)c3c2)c(OC)cc1Cl | 0.246 µM | 2.11 µM
40 | Cc1cc(N2CCN(C)CC2)ccc1NC(=O)c1cnc2c(c1)c(=O)n(C)c(=O)n2C | > 10 µM | > 10 µM

Row | SMILES | IC50 | IC90
41 | CN(C)S(=O)(=O)c1ccc2nnn(OCCCOc3ccc(C(C)(C)C)cc3)c2c1 | > 10 µM | > 10 µM
42 | C=CCNc1nnc(SCC(=O)Nc2c(Cl)cc(Cl)cc2C(=O)O)s1 | > 10 µM | > 10 µM
43 | CCCN(Cc1nc(-c2ccccc2)c2ccccc2n1)Cc1nc2ccsc2c(=O)[nH]1 | > 10 µM | > 10 µM
44 | COc1ccc(S(=O)(=O)N2CCc3ccccc32)cc1C(=O)NOCc1ccccc1 | > 10 µM | > 10 µM
45 | CCc1ccc(CNCc2ccc3c(c2)OCO3)cc1 | > 12.3 µM | > 12.3 µM
46 | O=C(NNC1c2ccccc2-c2ccccc21)c1ccccc1 | 8.58 µM | > 10 µM
47 | Cc1ccc(C(C)C)cc1OS(=O)(=O)c1ccc(S(=O)(=O)N(C)C)cc1[N+](=O)[O-] | > 10 µM | > 10 µM
48 | CCn1c(SCCC(=O)Nc2cc(C)on2)nnc1-c1ccc(C(C)(C)C)cc1 | > 10 µM | > 10 µM
49 | CC(C)C(NC(=O)c1ccc(C(C)(C)C)cc1)C(=O)Nc1ncc(Cc2ccc(Cl)cc2)s1 (stereo unspecified) | > 10 µM | > 10 µM
50 | CCN(CC)S(=O)(=O)c1ccc(/C=C/C(=O)N2CC=C(c3ccccc3)CC2)cc1 | > 10 µM | > 10 µM
51 | O=C(CSc1nc2ccccc2c(=O)n1-c1ccccc1F)N1CCSC1c1ccccc1F (stereo unspecified) | > 10 µM | > 10 µM
52 | O=C(NC1CC1)c1ccc(CN(C2CC2)S(=O)(=O)c2ccccc2[N+](=O)[O-])cc1 | 3.41 µM | 3.74 µM
53 | c1ccc(-c2cn3nc(NCc4ccccc4CN4CCOCC4)sc3n2)cc1 | 1.28 µM | > 10 µM
54 | CC1Cc2cc(C3=NNC(=Nc4ccccc4[N+](=O)[O-])SC3)ccc2N1S(C)(=O)=O (stereo unspecified) | 5.32 µM | > 10 µM
55 | N#CCCN(Cc1ccco1)C(=O)CSc1nc2ccccc2c(=O)n1-c1cccc(Cl)c1 | 7.35 µM | > 10 µM
56 | CCCCCCc1ccc(-c2csc(NC(=O)CSc3nnc(C(F)(F)F)n3C)n2)cc1 | > 10 µM | > 10 µM
57 | Cc1ccc(OCc2nc(C(=O)Nc3cccc(S(=O)(=O)NC(C)(C)C)c3)cs2)cc1 | > 10 µM | > 10 µM
58 | COc1cccc2cc(C(=O)/C=C/c3c(C)nc4sc(C)cn34)oc12 | > 10 µM | > 10 µM

Reference: ChEMBL document CHEMBL4483862, “Open-source discovery of chemical leads for next-generation chemoprotective antimalarials” (2018)
